Test results as given in US20240207458A1, “TARGETED ALPHA PARTICLE THERAPY FOR SOMATOSTATIN RECEPTOR 2 POSITIVE NEUROENDOCRINE TUMORS AND METASTASES” (H. LEE MOFFITT CANCER CENTER AND RESEARCH INSTITUTE, INC., priority 2021, published 2024).
Values belong to the compound of their own block, whether it stands above or below them. Bridge positions count the residues as written; N and C are the ends. Square brackets hold non-standard residues; d marks the D form. Peptide text beside a SMILES is read from it. * marks the point of attachment. DOTA = O=C(O)CN1CCN(CC(=O)O)CCN(CC(=O)*)CCN(CC(=O)O)CC1

Key:
[1] = Log D7.4, miniaturized shake flask assay (n-octanol/PBS pH 7.4); format: physicochemical; conditions: for Log D7.4 of La^3+ chelate: La3+ chelate, n-octanol/PBS; for LogD7.4: metal chelate as named (Eu or La)
Method: Log D7.4 measurements of the La^3+-labeled derivatives: The octanol-water partition coefficients at pH7.4 (LogD7.4) of DOTA-linker-TATE derivatives were determined using the miniaturized shake flask assay (Table 1). Briefly, 1:1 n-octanol (HPLC grade) was added to the solution of the test compound in PBS buffer (NaH2PO4/Na2HPO4 buffer, pH 7.4). The mixture was well mixed and then two layers were separated by centrifuge. The concentrations of compound in each layer were determined by HPLC.

SSTR2 receptor = target: T1, SSTR2 receptor (Homo sapiens, UniProt P30874); assay: whole-cell competition binding assay with Eu-DOTATATE as competing ligand (Hek293/SSTR2 cells); conditions: FIGS. 5 and 6
T1 construct: expressed in transfected cells; host or cells: Hek293/SSTR2 cells
Method: Competition curves were analyzed with GraphPad Prism software using the sigmoidal dose-response (variable slope) classical equation for nonlinear regression analysis.

[2] = 225Ac chelate, non-tumor bearing BALB/c mice
Method: BD of ^225Ac-DOTA-linker-TATE derivatives in non-tumor bearing BALB/c mice: The biodistribution studies for all 5 compounds were conducted (FIG. 4 and Table 1).

[3] = parameters: species or system BALB/c mice; conditions: mouse, in vivo
Method: (§1) Non-tumor bearing BALB/c mice were tested for toxicity and BD. […] RD was calculated using the BD data.
(§2) RD calculations determined pharmacokinetics parameters and absorbed α-emission dosages from ^225Ac and its daughters.

[4] = mouse, in vivo
Method: as §1, §2

in vitro = in vitro ADME; conditions: human, plasma
Method: The compound was >95% intact after 5 days incubation.

T1 sequence (P30874 whole entry): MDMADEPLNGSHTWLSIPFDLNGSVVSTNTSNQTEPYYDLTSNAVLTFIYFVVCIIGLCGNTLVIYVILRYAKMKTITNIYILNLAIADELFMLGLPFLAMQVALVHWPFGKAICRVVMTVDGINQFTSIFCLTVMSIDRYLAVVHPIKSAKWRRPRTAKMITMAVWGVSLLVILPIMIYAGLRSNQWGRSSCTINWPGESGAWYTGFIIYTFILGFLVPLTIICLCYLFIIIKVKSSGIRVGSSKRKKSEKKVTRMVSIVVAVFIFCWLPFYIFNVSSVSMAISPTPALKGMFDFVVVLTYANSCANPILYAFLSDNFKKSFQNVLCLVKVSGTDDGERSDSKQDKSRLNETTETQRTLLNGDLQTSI

Compound: CC(C)C[C@@H](NC(=O)[C@@H](Cc1ccccc1)NC(=O)CN1CCN2CCN3CCN(CC1)CC(=O)[O][139La]([O]C(=O)C2)[O]C(=O)C3)C(=O)N[C@H](Cc1ccccc1)C(=O)N[C@H]1CSSC[C@@H](C(=O)N[C@H](C(=O)O)[C@@H](C)O)NC(=O)[C@H]([C@@H](C)O)NC(=O)[C@H](CCCCN)NC(=O)[C@@H](Cc2c[nH]c3ccccc23)NC(=O)[C@H](Cc2ccc(O)cc2)NC1=O [Compound 15, 139La-DOTA-D-Phe-D-Leu-TATE]
binding affinity for the SSTR2 receptor (SSTR2 receptor): high binding affinity (low nM Ki)

Compound: C[C@@H](NC(=O)[C@@H](Cc1ccccc1)NC(=O)CN1CCN2CCN3CCN(CC1)CC(=O)[O][139La]([O]C(=O)C2)[O]C(=O)C3)C(=O)N[C@H](Cc1ccccc1)C(=O)N[C@H]1CSSC[C@@H](C(=O)N[C@H](C(=O)O)[C@@H](C)O)NC(=O)[C@H]([C@@H](C)O)NC(=O)[C@H](CCCCN)NC(=O)[C@@H](Cc2c[nH]c3ccccc23)NC(=O)[C@H](Cc2ccc(O)cc2)NC1=O [Compound 14, 139La-DOTA-D-Phe-D-Ala-TATE]
binding affinity for the SSTR2 receptor (SSTR2 receptor): high binding affinity (low nM Ki)

Compound: C[C@@H](O)[C@H](NC(=O)[C@@H]1CSSC[C@H](NC(=O)[C@@H](Cc2ccccc2)NC(=O)CN2CCN(CC(=O)O)CCN(CC(=O)O)CCN(CC(=O)O)CC2)C(=O)N[C@@H](Cc2ccc(O)cc2)C(=O)N[C@H](Cc2c[nH]c3ccccc23)C(=O)N[C@@H](CCCCN)C(=O)N[C@@H]([C@@H](C)O)C(=O)N1)C(=O)O [Compound 1, DOTA-TATE, reference compound]
Kidney/Liver uptake ratio (24 h) [2]: 3.6

Compound: C[C@@H](O)[C@H](NC(=O)[C@@H]1CSSC[C@H](NC(=O)[C@@H](Cc2ccccc2)NC(=O)[C@@H](CCC(=O)O)NC(=O)[C@@H](CCC(=O)O)NC(=O)CN2CCN(CC(=O)O)CCN(CC(=O)O)CCN(CC(=O)O)CC2)C(=O)N[C@@H](Cc2ccc(O)cc2)C(=O)N[C@H](Cc2c[nH]c3ccccc23)C(=O)N[C@@H](CCCCN)C(=O)N[C@@H]([C@@H](C)O)C(=O)N1)C(=O)O [Compound 3, DOTA-di-D-Glu-TATE]
Kidney/Liver uptake ratio (24 h) [2]: 16.5

Compound: C[C@@H](O)[C@H](NC(=O)[C@@H]1CSSC[C@H](NC(=O)[C@@H](Cc2ccccc2)NC(=O)CCCCCNC(=O)CN2CCN(CC(=O)O)CCN(CC(=O)O)CCN(CC(=O)O)CC2)C(=O)N[C@@H](Cc2ccc(O)cc2)C(=O)N[C@H](Cc2c[nH]c3ccccc23)C(=O)N[C@@H](CCCCN)C(=O)N[C@@H]([C@@H](C)O)C(=O)N1)C(=O)O [Compound 2, DOTA-Ahx-TATE]
Kidney/Liver uptake ratio (24 h) [2]: 5.3

More lines, main results first:

Log D7.4 of La^3+ chelate [1]: −3.10
LogD7.4 [1]: −3.10
Compound: C[C@@H](O)[C@H](NC(=O)[C@@H]1CSSC[C@H](NC(=O)[C@@H](Cc2ccccc2)NC(=O)[C@@H](CCC(=O)O)NC(=O)[C@@H](CCCCN)NC(=O)CN2CCN(CC(=O)O)CCN(CC(=O)O)CCN(CC(=O)O)CC2)C(=O)N[C@@H](Cc2ccc(O)cc2)C(=O)N[C@H](Cc2c[nH]c3ccccc23)C(=O)N[C@@H](CCCCN)C(=O)N[C@@H]([C@@H](C)O)C(=O)N1)C(=O)O [Compound 11, La-DOTA-D-Lys-D-Glu-TATE] ({DOTA}-[dK][dE][dF]CY[dW]KTCT-OH; disulfide 4-9)

Log D7.4 of La^3+ chelate [1]: −3.28
LogD7.4 [1]: −3.28
Compound: C[C@@H](O)[C@H](NC(=O)[C@@H]1CSSC[C@H](NC(=O)[C@@H](Cc2ccccc2)NC(=O)[C@@H](CCCCN)NC(=O)[C@@H](CCCCN)NC(=O)CN2CCN(CC(=O)O)CCN(CC(=O)O)CCN(CC(=O)O)CC2)C(=O)N[C@@H](Cc2ccc(O)cc2)C(=O)N[C@H](Cc2c[nH]c3ccccc23)C(=O)N[C@@H](CCCCN)C(=O)N[C@@H]([C@@H](C)O)C(=O)N1)C(=O)O [Compound 10, La-DOTA-D-Lys-D-Lys-TATE]

Kidney/Liver uptake ratio (24 h) [2]: 89.6
Compound: C[C@@H](O)[C@H](NC(=O)[C@@H]1CSSC[C@H](NC(=O)[C@@H](Cc2ccccc2)NC(=O)[C@@H](CCCCN)NC(=O)[C@@H](CCCCN)NC(=O)CN2CCN(CC(=O)O)CCN(CC(=O)O)CCN(CC(=O)O)CC2)C(=O)N[C@@H](Cc2ccc(O)cc2)C(=O)N[C@H](Cc2c[nH]c3ccccc23)C(=O)N[C@@H](CCCCN)C(=O)N[C@@H]([C@@H](C)O)C(=O)N1)C(=O)O [Compound 4, DOTA-di-D-Lys-TATE]

primary route of elimination [3]: renal route
remaining at 120 h (in vitro): 96.7 ± 2.06%
% Intact TLC scanner (in vitro; 24 h): 100.44 ± 0.88%
% Intact TLC scanner (in vitro; 72 h): 99.27 ± 0.29%
% Intact TLC scanner (in vitro; 168 h): 93.19 ± 1.50%
% Intact TLC scanner (in vitro; 240 h): 90.29 ± 4.00%
Compound: C[C@@H](O)[C@H](NC(=O)[C@@H]1CSSC[C@H](NC(=O)[C@@H](Cc2ccccc2)NC(=O)CN2CCN(CC(=O)O)CCN(CC(=O)O)CCN(CC(=O)O)CC2)C(=O)N[C@@H](Cc2ccc(O)cc2)C(=O)N[C@H](Cc2c[nH]c3ccccc23)C(=O)N[C@@H](CCCCN)C(=O)N[C@@H]([C@@H](C)O)C(=O)N1)C(=O)O [^225Ac-DOTATATE, metal not drawn]
appearance / indications of toxicity [4]: no indications of toxicity

LogD7.4 [1]: −2.80
Compound: Eu-DOTA-TATE [Compound 6, reference compound]

Kidney/Liver uptake ratio (24 h) [2]: 87.6
Compound: DOTA-D-Lys-D-Glu-TATE [Compound 5]
